“And” between values parts separate entries of the source, which are not always exact repeats. Equal values may be shown once. Inconclusive results and toxic doses are left out. Cut-off read from the data, not from the text of the source: active = T/C of 150% or more; inactive = T/C below 125%.
Tested on: L1210 leukemia ip in BDF1 mice, survival T/C
Assay: NCI In Vivo Anticancer Drug Screen. Data for tumor model L1210 Leukemia (intraperitoneal) in B6D2F1 (BDF1) mice
Details: endpoint: mean survival time, higher = longer survival
How it was run: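 Tumor cells were implanted, animals were treated, and survival was followed. The result divides the treated measurement by the vehicle-control measurement.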

[1] = dose: 50.0 mg/kg/injection, schedule: Q01DX001 (ip), vehicle: saline
[2] = dose: 100.0 mg/kg/injection, schedule: Q01DX001 (ip), vehicle: saline
[3] = dose: 200.0 mg/kg/injection, schedule: Q01DX001 (ip), vehicle: saline
[4] = dose: 400.0 mg/kg/injection, schedule: Q01DX001 (ip), vehicle: saline
[5] = dose: 100.0 mg/kg/injection, schedule: Q04DX003 (ip), vehicle: saline with Tween-80
[6] = dose: 200.0 mg/kg/injection, schedule: Q04DX003 (ip), vehicle: saline with Tween-80
[7] = dose: 400.0 mg/kg/injection, schedule: Q04DX003 (ip), vehicle: saline with Tween-80
[8] = dose: 100.0 mg/kg/injection, schedule: Q04DX003 (ip), vehicle: saline
[9] = dose: 200.0 mg/kg/injection, schedule: Q04DX003 (ip), vehicle: saline
[10] = dose: 100.0 mg/kg/injection, schedule: Q01DX009 (ip), vehicle: Klucel (hydroxypropylcellulose) (HPC)
[11] = dose: 100.0 mg/kg/injection, schedule: Q04DX002 (ip), vehicle: Klucel (hydroxypropylcellulose) (HPC)
[12] = dose: 200.0 mg/kg/injection, schedule: Q04DX002 (ip), vehicle: Klucel (hydroxypropylcellulose) (HPC)
[13] = dose: 100.0 mg/kg/injection, schedule: Q01DX009 (ip), vehicle: saline with Tween-80
[14] = dose: 200.0 mg/kg/injection, schedule: Q01DX009 (ip), vehicle: saline with Tween-80
[15] = dose: 400.0 mg/kg/injection, schedule: Q01DX009 (ip), vehicle: saline with Tween-80
[16] = dose: 100.0 mg/kg/injection, schedule: Q04DX003 (ip), vehicle: other
[17] = dose: 200.0 mg/kg/injection, schedule: Q04DX003 (ip), vehicle: other
[18] = dose: 400.0 mg/kg/injection, schedule: Q04DX003 (ip), vehicle: other
[19] = dose: 100.0 mg/kg/injection, schedule: Q04DX002 (ip), vehicle: saline
[20] = dose: 200.0 mg/kg/injection, schedule: Q04DX002 (ip), vehicle: saline
[21] = dose: 400.0 mg/kg/injection, schedule: Q04DX002 (ip), vehicle: saline

Measured: T/C

Cn1cc2c(=O)n(OS(=O)(=O)c3ccccc3)c(=O)[nH]c2n1
inactive: [1] 106 % of control | [2] 93 % of control | [3] 106 % of control | [4] 100 % of control

COc1cc(C)c(OC)cc1C
inactive: [5] 99 % of control | [6] 99 % of control | [7] 94 % of control

NCc1c[nH]c2ccccc12
inactive: dose: 44.0 mg/kg/injection, schedule: Q01DX Z (ip), vehicle: water 107 % of control | dose: 66.0 mg/kg/injection, schedule: Q01DX Z (ip), vehicle: water 105 % of control | [2] 95 % of control | dose: 100.0 mg/kg/injection, schedule: Q01DX Z (ip), vehicle: water 105 % of control | [8] 98 % of control | dose: 150.0 mg/kg/injection, schedule: Q01DX Z (ip), vehicle: water 105 % of control | [3] 92 % of control | [9] 95 % of control | [4] 89 % of control | dose: 400.0 mg/kg/injection, schedule: Q04DX003 (ip), vehicle: saline 88 % of control

CCOC(=O)c1cnc(SC)nc1NCc1ccc(Cl)c(Cl)c1
inactive: [5] 94 % of control | [6] 102 % of control | [7] 96 % of control

CCOC(=O)c1cnc(SCCN2C(=O)c3ccccc3C2=O)[nH]c1=O
inactive: dose: 100.0 mg/kg/injection, schedule: Q04DX003 (ip), vehicle: gum acacia 100 % of control | dose: 200.0 mg/kg/injection, schedule: Q04DX003 (ip), vehicle: gum acacia 102 % of control | dose: 400.0 mg/kg/injection, schedule: Q04DX003 (ip), vehicle: gum acacia 97 % of control

O=C(Cc1ccccc1)OCCc1ccccc1
inactive: [10] 98 % of control and 105 % of control | dose: 100.0 mg/kg/injection, schedule: Q04DX003 (ip), vehicle: Klucel (hydroxypropylcellulose) (HPC) 94 % of control and 98 % of control | dose: 200.0 mg/kg/injection, schedule: Q01DX009 (ip), vehicle: Klucel (hydroxypropylcellulose) (HPC) 97 % of control and 89 % of control | dose: 200.0 mg/kg/injection, schedule: Q04DX003 (ip), vehicle: Klucel (hydroxypropylcellulose) (HPC) 94 % of control and 100 % of control | dose: 400.0 mg/kg/injection, schedule: Q01DX009 (ip), vehicle: Klucel (hydroxypropylcellulose) (HPC) 101 % of control and 104 % of control | dose: 400.0 mg/kg/injection, schedule: Q04DX003 (ip), vehicle: Klucel (hydroxypropylcellulose) (HPC) 96 % of control and 100 % of control

N#Cc1nc2c3ccccc3c(N=NC(N)=S)c-2[nH]c1C#N
inactive: dose: 50.0 mg/kg/injection, schedule: Q04DX002 (ip), vehicle: Klucel (hydroxypropylcellulose) (HPC) 87 % of control | [11] 91 % of control | [12] 91 % of control

CCOC(=O)C(C)(C)C(O)C(C)C (stereo not given)
inactive: [13] 106 % of control | [14] 103 % of control | [15] 93 % of control

O=[N+]([O-])c1ccc(Oc2cc(Cl)c(Cl)cc2Cl)nc1
inactive: [13] 101 % of control | [5] 104 % of control | [14] 103 % of control | [6] 102 % of control | [15] 100 % of control | [7] 106 % of control

Cc1cc(=O)[nH]c(Nc2nc3cc(Cl)c(Cl)cc3[nH]2)n1
inactive: [13] 92 % of control | [14] 90 % of control | [15] 97 % of control

COc1ccccc1NC1=C(NC(C)=O)C(=O)c2ccccc2C1=O
inactive: [5] 95 % of control | [6] 95 % of control | [7] 97 % of control

OCCSc1ccccc1
inactive: [16] 97 % of control | [17] 103 % of control | [18] 93 % of control

COc1ccc(-c2n[nH]c(C(F)(F)F)c2N=NN(C)C)cc1OC
inactive: dose: 75.0 mg/kg/injection, schedule: Q01DX001 (ip), vehicle: other 93 % of control | dose: 150.0 mg/kg/injection, schedule: Q01DX001 (ip), vehicle: other 94 % of control | dose: 300.0 mg/kg/injection, schedule: Q01DX001 (ip), vehicle: other 91 % of control

N#Cc1cccc(CS(=O)(=O)c2ccccc2)c1
inactive: [11] 104 % of control | [12] 96 % of control | dose: 400.0 mg/kg/injection, schedule: Q04DX002 (ip), vehicle: Klucel (hydroxypropylcellulose) (HPC) 89 % of control

O=C(Cl)C1CCC1C(=O)Cl (stereo not given)
inactive: dose: 75.0 mg/kg/injection, schedule: Q01DX001 (ip), vehicle: carboxymethylcellulose (CMC) 102 % of control | dose: 150.0 mg/kg/injection, schedule: Q01DX001 (ip), vehicle: carboxymethylcellulose (CMC) 91 % of control

COc1ccc(OC(C)OCCOCCOC(C)=O)cc1 (stereo not given)
inactive: [19] 104 % of control | [20] 93 % of control | [21] 107 % of control

CC(C)CCCCCCCCOC(=O)c1ccccc1C(=O)OCCCCCCCCC(C)C
inactive: [2] 98 % of control | [3] 103 % of control | [4] 103 % of control

CC1=CCC(=O)O1
inactive: [1] 100 % of control | dose: 50.0 mg/kg/injection, schedule: Q01DX009 (ip), vehicle: saline with Tween-80 94 % of control | [2] 100 % of control | [13] 97 % of control | [3] 97 % of control | [14] 94 % of control | [4] 97 % of control

CC1(C)CC(N)CC(C)(C)N1O
inactive: [8] 100 % of control | [9] 97 % of control

COc1c(C)c(C)c(OC)c(C(C)O)c1C (stereo not given)
inactive: [16] 92 % of control | [17] 100 % of control | [18] 97 % of control

CCOC1OC(C2COC(=O)O2)C(O)C1O (stereo not given)
inactive: [19] 100 % of control | [20] 100 % of control and 104 % of control | [21] 100 % of control | dose: 800.0 mg/kg/injection, schedule: Q04DX002 (ip), vehicle: saline 100 % of control

CN(C)C(=S)Oc1ccc(O)cc1
inactive: dose: 100.0 mg/kg/injection, schedule: Q01DX001 (ip), vehicle: saline with Tween-80 102 % of control | dose: 200.0 mg/kg/injection, schedule: Q01DX001 (ip), vehicle: saline with Tween-80 97 % of control | dose: 400.0 mg/kg/injection, schedule: Q01DX001 (ip), vehicle: saline with Tween-80 100 % of control

COS(=O)(=O)c1ccc[n+](C)c1
inactive: [1] 100 % of control | [2] 105 % of control | [3] 98 % of control | [4] 96 % of control

Cc1ccc(N)c2cccnc12
inactive: [10] 93 % of control

C[S+](C)Cc1ccc(C(=O)Oc2ccc([N+](=O)[O-])cc2)cc1
inactive: dose: 25.0 mg/kg/injection, schedule: Q01DX009 (ip), vehicle: saline 100 % of control | dose: 25.0 mg/kg/injection, schedule: Q04DX003 (ip), vehicle: saline 97 % of control | dose: 50.0 mg/kg/injection, schedule: Q01DX009 (ip), vehicle: saline 98 % of control | dose: 50.0 mg/kg/injection, schedule: Q04DX003 (ip), vehicle: saline 100 % of control | dose: 100.0 mg/kg/injection, schedule: Q01DX009 (ip), vehicle: saline 96 % of control and 102 % of control | [8] 100 % of control and 101 % of control | dose: 200.0 mg/kg/injection, schedule: Q01DX009 (ip), vehicle: saline 87 % of control

Source: PubChem BioAssay AID248 (DTP/NCI, 2004)
